Laboratory results published in US20160355530A1, “HEPATITIS C INHIBITORS AND USES THEREOF” (AbbVie Inc., priority 2010, published 2016).
Like-named read-outs stand apart in the source and are kept apart here.

What was measured:
[1] = target: T1, HCV NS5B polymerase 1b BK strain (Hepatitis C virus genotype 1b, UniProt P26663); experiment: HCV NS5B polymerase enzymatic inhibition assay, strain 1b BK; assay type: biochemical; conditions: enzyme, strain 1b BK; read-out: HCV Polymerase Strain 1b BK IC50
T1 construct: six-histidine tag; made in house; host or cells: E. coli
How it was run: (§1)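 E. coli-expressed NS5B (residues 1-570, His-tagged) transcribed a 2.1 kb HCV 1b negative-strand 3′-end RNA template (5 nM) with 20 μM CTP, 20 μM ATP and 0.284 μM [3H]UTP for 3 h at 30° C. Spermine-precipitated RNA was filter-captured and counted by scintillation; IC50 from nonlinear regression.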

[2] = test system: chimeric replicon with genotype 3a NS5B; experiment: microbe, parasite or virus in culture; assay type: cell-based, HCV genotype 3a; conditions: Hepatitis C virus, read-out: 3a chimera 5% FBS EC50
[3] = test system: chimeric replicon with genotype 4a NS5B; experiment: microbe, parasite or virus in culture; assay type: cell-based, HCV genotype 4a; conditions: Hepatitis C virus, read-out: 4a chimera 5% FBS EC50
[4] = test system: HCV NS5B polymerase 1a-H77-C316Y; experiment: biochemical; parameters: species or system HCV genotype 1a; conditions: ratio of enzyme IC50s, 1a H77-C316Y / 1a H77
How it was run: as §1

[5] = target: T2, HCV NS5B polymerase 1a-H77 (Hepatitis C virus genotype 1a, UniProt P27958); experiment: biochemical; parameters: species or system HCV genotype 1a; conditions: enzyme, strain 1a H77; read-out: HCV Polymerase Strain 1a H77 IC50
T2 construct: six-histidine tag; made in house; host or cells: E. coli
How it was run: as §1

[6] = target: T3, HCV NS5B polymerase 1a-H77-C316Y (Hepatitis C virus genotype 1a, UniProt P27958, C2736Y); experiment: biochemical; parameters: species or system HCV genotype 1a
T3 construct: six-histidine tag; made in house; host or cells: E. coli
How it was run: as §1

[7] = test system: HCV 1b-BB7 subgenomic replicon; experiment: microbe, parasite or virus in culture; assay type: cell-based, HCV genotype 1b; conditions: Hepatitis C virus, stable replicon
[8] = test system: HCV 1a-H77 subgenomic replicon; experiment: microbe, parasite or virus in culture; assay type: cell-based, HCV genotype 1a; conditions: Hepatitis C virus, stable replicon
[9] = test system: chimeric replicon with 2a-J6CF-derived NS5B; experiment: microbe, parasite or virus in culture; assay type: cell-based, HCV genotype 2a; conditions: Hepatitis C virus, read-out: 2a chimera 5% FBS EC50
[10] = test system: chimeric replicon with genotype 2b NS5B; experiment: microbe, parasite or virus in culture; assay type: cell-based, HCV genotype 2b; conditions: Hepatitis C virus, read-out: 2b chimera 5% FBS EC50
[11] = strain 1b BB7, 5% FBS + 40% human plasma, read-out: 1b BB7 5% FBS + 40% Human Plasma EC50
[12] = strain 1b BB7, 5% FBS, no human plasma, read-out: 1b BB7 5% FBS EC50
[13] = strain 1b BB7, 5% FBS, read-out: 1b BB7 5% FBS EC50
[14] = 5% FBS, absence of human plasma, read-out: Stable Replicon 1a H77 5% FBS EC50
[15] = strain 1a H77, 5% FBS + 40% human plasma, read-out: 1a H77 5% FBS + 40% Human Plasma EC50
[16] = strain 1a H77, 5% FBS, no human plasma, read-out: 1a H77 5% FBS EC50
[17] = strain 1a H77, 5% FBS, read-out: 1a H77 5% FBS EC50

T3 sequence (P27958 2421-2990 C2736Y): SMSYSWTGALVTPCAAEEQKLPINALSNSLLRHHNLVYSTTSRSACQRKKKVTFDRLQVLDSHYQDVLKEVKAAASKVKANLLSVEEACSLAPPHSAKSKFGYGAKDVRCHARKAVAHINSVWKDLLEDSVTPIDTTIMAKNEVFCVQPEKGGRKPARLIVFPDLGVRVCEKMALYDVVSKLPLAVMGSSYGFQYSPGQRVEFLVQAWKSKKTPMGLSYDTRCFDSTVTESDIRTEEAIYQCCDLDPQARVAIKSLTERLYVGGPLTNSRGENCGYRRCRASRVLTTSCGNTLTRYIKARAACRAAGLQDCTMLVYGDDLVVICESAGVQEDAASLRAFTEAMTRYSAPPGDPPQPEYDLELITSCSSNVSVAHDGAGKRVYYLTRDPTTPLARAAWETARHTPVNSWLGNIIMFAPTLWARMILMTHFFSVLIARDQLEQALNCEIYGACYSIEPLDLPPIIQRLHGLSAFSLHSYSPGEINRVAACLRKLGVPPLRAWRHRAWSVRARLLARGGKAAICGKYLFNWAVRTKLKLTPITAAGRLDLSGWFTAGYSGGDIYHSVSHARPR
T2 sequence (P27958 2421-2990): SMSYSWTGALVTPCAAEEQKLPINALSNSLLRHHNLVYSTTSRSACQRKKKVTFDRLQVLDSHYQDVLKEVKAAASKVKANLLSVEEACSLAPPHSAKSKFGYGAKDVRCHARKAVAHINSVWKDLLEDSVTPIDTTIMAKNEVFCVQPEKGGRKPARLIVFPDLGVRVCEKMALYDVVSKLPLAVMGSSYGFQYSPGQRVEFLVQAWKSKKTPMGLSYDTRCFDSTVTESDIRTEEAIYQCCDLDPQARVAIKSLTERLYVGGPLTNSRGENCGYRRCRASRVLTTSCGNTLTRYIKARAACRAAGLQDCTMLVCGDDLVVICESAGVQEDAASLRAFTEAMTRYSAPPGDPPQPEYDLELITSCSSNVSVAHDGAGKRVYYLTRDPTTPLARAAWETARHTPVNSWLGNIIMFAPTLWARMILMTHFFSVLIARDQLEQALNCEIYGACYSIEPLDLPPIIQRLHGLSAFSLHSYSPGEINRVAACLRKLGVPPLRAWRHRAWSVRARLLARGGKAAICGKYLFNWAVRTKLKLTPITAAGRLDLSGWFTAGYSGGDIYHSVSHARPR
T1 sequence (P26663 2420-2989): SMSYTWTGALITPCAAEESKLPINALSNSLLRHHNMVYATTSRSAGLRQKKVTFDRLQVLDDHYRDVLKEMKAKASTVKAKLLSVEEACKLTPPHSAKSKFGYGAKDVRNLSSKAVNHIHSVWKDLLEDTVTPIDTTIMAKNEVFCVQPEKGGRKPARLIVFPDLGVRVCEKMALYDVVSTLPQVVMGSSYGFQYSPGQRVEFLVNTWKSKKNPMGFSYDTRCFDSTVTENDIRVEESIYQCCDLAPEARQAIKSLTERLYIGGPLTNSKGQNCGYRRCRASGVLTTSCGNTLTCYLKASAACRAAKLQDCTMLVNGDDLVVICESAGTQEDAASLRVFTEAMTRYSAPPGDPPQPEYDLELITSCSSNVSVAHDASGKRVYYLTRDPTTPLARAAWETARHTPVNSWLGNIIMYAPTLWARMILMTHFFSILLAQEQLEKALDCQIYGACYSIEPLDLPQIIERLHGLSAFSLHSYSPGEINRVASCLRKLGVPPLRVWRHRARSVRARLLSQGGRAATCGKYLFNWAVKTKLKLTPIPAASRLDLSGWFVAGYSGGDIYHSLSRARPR

SMILES	IC50 [1]	EC50 [2]	EC50 [3]	C316Y/1a Fold Resistance [4]	IC50 [5]	IC50 [6]	EC50 [7, 11]	EC50 [7, 12]	EC50 [7, 13]	EC50 [8, 14]	EC50 [8, 15]	EC50 [8, 16]	EC50 [8, 17]	EC50 [9]	EC50 [10]
CCS(=O)(=O)CCN(c1cc2oc(-c3ccc(F)cc3)c(C3=NOCCN3)c2cc1C1CC1)S(C)(=O)=O [Example 142, N-[5-cyclopropyl-3-(5,6-dihydro-4H-1,2,4-oxadiazin-3-yl)-2-(4-fluorophenyl)-1-benzofuran-6-yl]-N-[2-(ethylsulfonyl)ethyl]methanesulfonamide]	0.042 µM	0.021 µM	0.161 µM	8 fold	0.007 µM	0.059 µM	0.11 µM	0.011 µM	0.011 µM	0.0115 µM	0.041 µM	0.0115 µM	0.0115 µM	0.193 µM	0.368 µM
CCS(=O)(=O)CCCN(c1cc2oc(-c3ccc(F)cc3)c(C3=NOCCN3)c2cc1C1CC1)S(C)(=O)=O [Example 143, N-[5-cyclopropyl-3-(5,6-dihydro-4H-1,2,4-oxadiazin-3-yl)-2-(4-fluorophenyl)-1-benzofuran-6-yl]-N-[3-(ethylsulfonyl)propyl]methanesulfonamide]	0.042 µM	0.035 µM	0.15 µM	8 fold	0.009 µM	0.075 µM	0.108 µM	0.012 µM	0.012 µM	0.0218 µM	0.125 µM	0.0218 µM	0.0218 µM	0.131 µM	0.137 µM
CC[S+]([O-])CCCN(c1cc2oc(-c3ccc(F)cc3)c(C3=NOCCN3)c2cc1C1CC1)S(C)(=O)=O (stereo not drawn) [Example 144, N-[5-cyclopropyl-3-(5,6-dihydro-4H-1,2,4-oxadiazin-3-yl)-2-(4-fluorophenyl)-1-benzofuran-6-yl]-N-[3-(ethylsulfinyl)propyl]methanesulfonamide]	0.092 µM	0.062 µM	0.38 µM	13 fold	0.007 µM	0.089 µM	0.333 µM	0.037 µM	0.037 µM	0.039 µM	0.254 µM	0.039 µM	0.039 µM	0.38 µM	0.419 µM
[2H]C1([2H])NC(c2c(-c3ccc(F)cc3)oc3cc(N(CCCCS(C)(=O)=O)S(C)(=O)=O)c(C4CC4)cc23)=NO1 [Example 150, N-{5-cyclopropyl-3-[(5,5-^2H2)-4,5-dihydro-1,2,4-oxadiazol-3-yl]-2-(4-fluorophenyl)-1-benzofuran-6-yl}-N-[4-(methylsulfonyl)butyl]methanesulfonamide]	0.005 µM	0.007 µM	0.025 µM	11 fold	0.004 µM	0.042 µM	0.231 µM	0.004 µM	0.004 µM	0.005 µM	0.32 µM	0.005 µM	0.005 µM	0.043 µM	0.0309 µM
CC(C)CCN(c1cc2oc(-c3ccc(F)cc3)c(C3=NOCC(=O)N3)c2cc1C1CC1)S(C)(=O)=O [Example 162, N-[5-cyclopropyl-2-(4-fluorophenyl)-3-(5-oxo-5,6-dihydro-4H-1,2,4-oxadiazin-3-yl)-1-benzofuran-6-yl]-N-(3-methylbutyl)methanesulfonamide]	0.711 µM	1 µM	> 1 µM	34 fold	0.0357 µM	1.2 µM	9.71 µM	0.327 µM	0.327 µM	0.248 µM	10 µM	0.248 µM	0.248 µM	1 µM	1 µM
CS(=O)(=O)N(CCCc1nnn[nH]1)c1cc2oc(-c3ccc(F)cc3)c(-c3ncc[nH]3)c2cc1C1CC1 [Example 174, N-[5-cyclopropyl-2-(4-fluorophenyl)-3-(1H-imidazol-2-yl)-1-benzofuran-6-yl]-N-[3-(1H-tetrazol-5-yl)propyl]methanesulfonamide]	0.0186 µM	0.29 µM	> 1 µM	12 fold	0.0035 µM	0.04 µM	3.69 µM	0.192 µM	0.192 µM	0.32 µM	4.78 µM	0.32 µM	0.32 µM	1 µM	1 µM
CS(=O)(=O)N(CCCc1noc(=O)[nH]1)c1cc2oc(-c3ccc(F)cc3)c(-c3ncc[nH]3)c2cc1C1CC1 [Example 175, N-[5-cyclopropyl-2-(4-fluorophenyl)-3-(1H-imidazol-2-yl)-1-benzofuran-6-yl]-N-[3-(5-oxo-4,5-dihydro-1,2,4-oxadiazol-3-yl)propyl]methanesulfonamide]	0.025 µM	0.062 µM	0.407 µM	7 fold	0.006 µM	0.043 µM	0.57 µM	0.062 µM	0.062 µM	0.079 µM	1.18 µM	0.079 µM	0.079 µM	0.66 µM	0.723 µM
CS(=O)(=O)N(CCC/C(N)=N/O)c1cc2oc(-c3ccc(F)cc3)c(-c3ncc[nH]3)c2cc1C1CC1 [Example 176, (1Z)-4-{[5-cyclopropyl-2-(4-fluorophenyl)-3-(1H-imidazol-2-yl)-1-benzofuran-6-yl](methylsulfonyl)amino}-N′-hydroxybutanimidamide]	0.033 µM	0.012 µM	0.159 µM	27 fold	0.005 µM	0.134 µM	0.08 µM	0.02 µM	0.02 µM	0.0365 µM	0.133 µM	0.0365 µM	0.0365 µM	0.146 µM	0.155 µM
CS(=O)(=O)N(CCCc1noc(=S)[nH]1)c1cc2oc(-c3ccc(F)cc3)c(-c3ncc[nH]3)c2cc1C1CC1 [Example 177, N-[5-cyclopropyl-2-(4-fluorophenyl)-3-(1H-imidazol-2-yl)-1-benzofuran-6-yl]-N-[3-(5-thioxo-4,5-dihydro-1,2,4-oxadiazol-3-yl)propyl]methanesulfonamide]	0.036 µM	0.03 µM	0.401 µM	10 fold	0.004 µM	0.038 µM	0.461 µM	0.023 µM	0.023 µM	0.032 µM	0.52 µM	0.032 µM	0.032 µM	0.427 µM	0.606 µM
CS(=O)(=O)N(CCCc1nnn[nH]1)c1cc2oc(-c3ccc(F)cc3)c(C3=NOCCN3)c2cc1C1CC1 [Example 180, N-[5-cyclopropyl-3-(5,6-dihydro-4H-1,2,4-oxadiazin-3-yl)-2-(4-fluorophenyl)-1-benzofuran-6-yl]-N-[3-(1H-tetrazol-5-yl)propyl]methanesulfonamide]	0.032 µM	1 µM	> 1 µM	6 fold	0.006 µM	0.034 µM	10 µM	1 µM	1 µM	1 µM	10 µM	1 µM	1 µM	1 µM	1 µM
